The test system of assay [1] is patients with early rheumatoid arthritis. In words: Phase II trial of mucosal tolerization to SEQ ID NO. 1: clinical outcome. It is filed as in vivo, human. Here is the method: The model employed here is based on the hypothesis that immune tolerization to a T-cell epitope, such as SEQ ID NO. 1 that may be a contributor of inflammation in patients with rheumatoid arthritis, may lead to detectable clinical improvement. A total of 96 patients with early rheumatoid arthritis, who were not allowed on Methotrexate or biologics, were tested with mucosal tolerization to SEQ ID NO. 1. Patients are defined as “responders” if they meet the response criteria at any time during the study. […] SEQ ID NO. […]

Assay [2] has as its system Monocyte-derived, LPS-induced dendritic cells (mDC). In words: Marker expression on monocyte-derived, LPS-induced dendritic cells treated in vitro with HCQ. It is filed as cell-based, human. Here is the method:
FIG. 6. […] CD4+ sorted cells were co-cultured with the mDC-treated groups for an additional 24 hours.
(§1) MFI=Mean Fluorescence Index. […] MFI=Mean Fluorescence Index Sorted CD4+ T cells were then co-cultured with mDCs for an additional 24 hours.

Assay [3] relates to CD4+ sorted cells. In words: PD-1 / PDL1 expression on CD4+ T cells co-cultured with HCQ-treated mDC. The assay is classed as cell-based, human. Here is the method:
(§2) FIG. 6. […] CD4+ sorted cells were co-cultured with the mDC-treated groups for an additional 24 hours. The expression of PD-1 (MFI: 187 vs 212, T(x)=26.4, p<0.01) and intracellular PD-1 (MFI: 46 vs 222, T(x) 161, p<0.01) was increased in T cells when co-cultured with HCQ-treated mDC. h.
as §1
Monocyte-derived dendritic cells (DCs) were isolated from healthy controls and activated with lipopolysaccharide (LPS). […] HCQ-treated and untreated mature DCs were then co-cultured with CD4+ T cells to assess the potential of these DCs in activating the T cells.

The subject of assay [4] is T cells cocultured with mDC. In words: Gene expression of regulatory molecules in T cells co-cultured with mDC+HCQ. It is filed as cell-based, human. How it is done: as §2
Data are expressed as 2(−dCT)×100 of GAPDH.
as §1

The structures appear in SMILES notation.

As to `CCN(CCO)CCCC(C)Nc1ccnc2cc(Cl)ccc12` (stereo not shown) [HCQ, hydroxychloroquine], the “effect on the therapeutic activity of SEQ ID NO: 1” value in assay [1] (HCQ use preceding SEQ ID NO: 1 administration) is given as “synergistic effect”. Besides, in assay [1] (post hoc evaluation of Phase II trial, preceding use of HCQ in combination with SEQ ID NO. 1 treatment), the clinical control entry is recorded as “favored clinical control”. In assay [2] (control 100), the “expression of HLA-DR on mDC” value came out at 20.8 MFI. In assay [2] (control 264), the “expression of CD200 on mDC” value was determined as 409 MFI. Moreover, the “expression of IL-10 in mDC” value in assay [2] (control 453) came out at 1045 MFI. Further, the “expression of CD86 on mDC” value in assay [2] (control 37983) was determined as 34170 MFI. The “expression of intracellular PD-1 in T cells” value in assay [3] (CD4+ cells co-cultured 24 hours with HCQ-treated mDC, control 46) worked out at 222 MFI. In assay [3] (CD4+ cells co-cultured 24 hours with HCQ-treated mDC, control 187), the “expression of PD-1 in T cells” value is on record as 212 MFI. The “expression of PDL1 on CD4+ T cells” value in assay [3] (cultured in the presence of HCQ-treated DCs (FIG. 12B)) was “expressed more”. In assay [4] (without HCQ 1.74), the “Gene expression of CTLA-4 in T cells” value is on record as 15.06 2(−dCT)×100 of GAPDH. Besides, in assay [4] (without HCQ 3.06), the “Gene expression of FoxP3 in T cells” value was 12.27 2(−dCT)×100 of GAPDH. Besides, the “Gene expression of IL-10 in T cells” value in assay [4] (without HCQ 3.71) is recorded as 7.57 2(−dCT)×100 of GAPDH. Further, the “Gene expression of TGF β in T cells” value in assay [4] (without HCQ 15.00) is 23.85 2(−dCT)×100 of GAPDH.
